# Test results taken from PubChem BioAssay AID1963433 (Molecular Pharmacology Branch, DTP, NCI, 2024).
# Tested on: 772245-204-R-J1-PDC complex spheroid growth
# Test: Anticancer human tumor 772245-204-R-J1-PDC patient-derived rhabdomyosarcoma cell line growth inhibition [Asc]
# Conditions: for IC50: curve of first compound; for viability, T/C: stronger effect = lower value
# Method: Multicellular complex tumor spheroid response to apoptosis pathway targeting inhibitors Alrizomadlin, Pelcitoclax, and Dasminapant in combination with a variety of drugs and investigational agents in selected tumor cell lines
# The MDM2 inhibitor alrizomadlin, the Bcl-2/Bcl-xL inhibitor pelcitoclax, and the IAPs inhibitor dasminapant were evaluated both individually and in combination with standard of care and investigational anticancer small molecules within a complex spheroid model of solid tumors. . Complex spheroids include a stromal component modeled by human endothelial cells (HUVEC) and fibroblasts modeled by human mesenchymal stem cells (MSCs). The concentration ranges selected for each drug and investigational agent were based upon clinically achievable concentrations if the clinical Cmax of the agent was known.
# Compounds. The drugs and investigational agents: alrizomadlin (APG-115; NSC831270), pelcitoclax (APG-1252; NSC835773), dasminapant (APG-1387;NSC834197), TAK-243 (NSC785004), copanlisib (NSC809693), olaparib (NSC753686), talazoparib (NSC767125), cobimetinib (NSC 768068), eltanexor (KPT-8602, NSC 794443), abemaciclib (NSC 768073), sotorasib (NSC818433), adagrasib (NSC 831453), MRTX-1133 (NSC 836407), Iadademestat (ORY1001, NSC 806812), and RMC-4630 (NSC839698), were obtained from the NCI Developmental Therapeutics Program Chemical Repository. The FDA-approved anticancer drug set is available from the Developmental Therapeutics Program at https://dtp.cancer.gov/organization/dscb/obtaining/available plates.htm. […] The stock solutions were prepared in dimethyl sulfoxide (DMSO, Sigma-Aldrich, St. Louis, MO, cat. D2650) at 800-fold the tested concentration and stored at -70 degrees C prior to their use. All drugs and investigational agents were tested over a range starting from a high concentration at or near the clinical Cmax and decreasing in half-log increments. If the clinical Cmax for an agent had not been determined, the highest concentration tested was 10 microM.
# The patient-derived cancer (PDC) cell lines include five colon adenocarcinomas: 186277-243-T-J2-PDC, 616215-338-R-J1-PDC, 439559-082-T-J2-PDC, 463943-066-T-J2-PDC, and 519858-162-T-J1-PDC; three pancreatic carcinomas: 323965-272-R-J2-PDC, 521955-158-R6-J3-PDC, and 521955-158-R2-J5-PDC; two uterine sarcomas: 327498-152-R-J2-PDC and 993429-296-R-J1-PDC; two rhabdomyosarcomas: 755483-174-R-J1-PDC and 772245-204-R-J1-PDC; two soft tissue sarcomas: 126254-015-R-J1-PDC and 494315-158-R-J1-PDC; two malignant fibrous histiocytomas: 317291-083-R-J1-PDC and 596521-263-R-J1-PDC; two breast carcinomas: 171881-019-R-J1-PDC and 885512-296-R-J2-PDC; and one ovarian carcinoma: 6556581-035-R-J-PDC were obtained from the NCI PDMR, (https://pdmr.cancer.gov). The established cell lines HSSY-2 synovial sarcoma (RRID:CVCL 8719), SYO-1 synovial sarcoma (RRID:CVCL_7146), MPNST malignant peripheral neural sheath tumor were obtained from the Sloan Kettering Institute. The following established cell lines were purchased from the American Type Culture Collection (ATCC, Manassas, VA), Sor the received from the NCI repository:, PANC-1 pancreatic carcinoma (CRL-1469, RRID:CVCL_0480), OVCAR-5 ovarian carcinoma (RRID:CVCL_1628), OVCAR-8 ovarian carcinoma (RRID:CVCL_1629), , MCF-7 breast carcinoma (CRL-12584, RRID:CVCL_0031), MDA-MB-231 breast carcinoma (CRL-12532, RRID:CVCL_0062), NCI-H1876 small cell lung carcinoma (CRL-5902, RRID:CVCL_1503), NCI-H510A small cell lung carcinoma (HTB-184, RRID:CVCL_1565), NCI-H1417 (CRL-5869, RRID:CVCL_1469), and NCI-H196 small cell lung carcinoma (CRL-5823, RRID:CVCL_1509). Dr. Peter Houghton (Greehey Children's Cancer Research Institute, University of Texas Health Science Center, San Antonio, TX) provided Rh-18 rhabdomyosarcoma (RRID:CVCL_1659). Pooled donor human umbilical vein endothelial cells (HUVEC, Lonza, cat. CC-2519) and human mesenchymal stem cells (hMSC, Lonza, cat. PT-2501) were purchased from Lonza (Walkersville, MD).
# Cell Culture. […]
# 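Note: compound exposure lasted seven days.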
# 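Throughout, for viability, T/C: 100% = DMSO vehicle control viability.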
smiles,measurement,setting,value
Cc1nc(N2CCC3(CC2)COC(C)C3N)c(CO)nc1Sc1ccnc(N)c1Cl (stereo not given) + Cc1c(S(C)(=O)=O)c(-c2cc(F)cc(N3CCN(c4ccc(NS(=O)(=O)c5ccc(NC(CCN6CCC(C(=O)OCCCP(=O)(O)O)CC6)CSc6ccccc6)c(S(=O)(=O)C(F)(F)F)c5)cc4)CC3)c2)c(-c2ccc(Cl)cc2)n1C(C)C,IC50,second compound 0.1 µM,2230 nM
same,IC50,second compound 0.316 µM,644 nM
same,IC50,second compound 1 µM,369 nM
same,IC50,second compound 3.16 µM,86.2 nM
same,IC50,second compound 10 µM,444 nM
same,"viability, T/C","second compound 0.1 µM, first compound 0.00949 µM",90.3%
same,"viability, T/C","second compound 0.1 µM, first compound 0.03 µM",90.2%
same,"viability, T/C","second compound 0.1 µM, first compound 0.0949 µM",85%
same,"viability, T/C","second compound 0.1 µM, first compound 0.3 µM",71%
same,"viability, T/C","second compound 0.1 µM, first compound 0.949 µM",63.7%
same,"viability, T/C","second compound 0.1 µM, first compound 3 µM",45.4%
same,"viability, T/C","second compound 0.316 µM, first compound 0.00949 µM",72.6%
same,"viability, T/C","second compound 0.316 µM, first compound 0.03 µM",76.3%
same,"viability, T/C","second compound 0.316 µM, first compound 0.0949 µM",70.9%
same,"viability, T/C","second compound 0.316 µM, first compound 0.3 µM",57%
same,"viability, T/C","second compound 0.316 µM, first compound 0.949 µM",46.8%
same,"viability, T/C","second compound 0.316 µM, first compound 3 µM",31.2%
same,"viability, T/C","second compound 1 µM, first compound 0.00949 µM",47.4%
same,"viability, T/C","second compound 1 µM, first compound 0.03 µM",63.7%
same,"viability, T/C","second compound 1 µM, first compound 0.0949 µM",68.6%
same,"viability, T/C","second compound 1 µM, first compound 0.3 µM",47.9%
same,"viability, T/C","second compound 1 µM, first compound 0.949 µM",38.3%
same,"viability, T/C","second compound 1 µM, first compound 3 µM",20.3%
same,"viability, T/C","second compound 3.16 µM, first compound 0.00949 µM",60.9%
same,"viability, T/C","second compound 3.16 µM, first compound 0.03 µM",49.7%
same,"viability, T/C","second compound 3.16 µM, first compound 0.0949 µM",54.9%
same,"viability, T/C","second compound 3.16 µM, first compound 0.3 µM",37.9%
same,"viability, T/C","second compound 3.16 µM, first compound 0.949 µM",32.4%
same,"viability, T/C","second compound 3.16 µM, first compound 3 µM",14.5%
same,"viability, T/C","second compound 10 µM, first compound 0.00949 µM",52.1%
same,"viability, T/C","second compound 10 µM, first compound 0.03 µM",61.2%
same,"viability, T/C","second compound 10 µM, first compound 0.0949 µM",60.9%
same,"viability, T/C","second compound 10 µM, first compound 0.3 µM",55.4%
same,"viability, T/C","second compound 10 µM, first compound 0.949 µM",38.7%
same,"viability, T/C","second compound 10 µM, first compound 3 µM",16.4%
CNC(C)C(=O)NC1CN(S(=O)(=O)c2cccc(S(=O)(=O)N3CCC4CCC(C(=O)NC(c5ccccc5)c5ccccc5)N4C(=O)C(NC(=O)C(C)NC)C3)c2)CCC2CCC(C(=O)NC(c3ccccc3)c3ccccc3)N2C1=O (stereo not given) + CCN1C(C(=O)NC23CCC(C(=O)O)(CC2)CC3)C(c2cccc(Cl)c2F)C2(C(=O)Nc3cc(Cl)ccc32)C12CCCCC2,IC50,second compound 0.03 µM,> 1000 nM
same,IC50,second compound 0.0949 µM,> 1000 nM
same,IC50,second compound 0.3 µM,> 1000 nM
same,IC50,second compound 0.949 µM,> 1000 nM
same,IC50,second compound 3 µM,577 nM
same,"viability, T/C","second compound 0.03 µM, first compound 0.00316 µM",86.2%
same,"viability, T/C","second compound 0.03 µM, first compound 0.01 µM",102%
same,"viability, T/C","second compound 0.03 µM, first compound 0.0316 µM",88%
same,"viability, T/C","second compound 0.03 µM, first compound 0.1 µM",91.8%
same,"viability, T/C","second compound 0.03 µM, first compound 0.316 µM",94.9%
same,"viability, T/C","second compound 0.03 µM, first compound 1 µM",86.8%
same,"viability, T/C","second compound 0.0949 µM, first compound 0.00316 µM",94.5%
same,"viability, T/C","second compound 0.0949 µM, first compound 0.01 µM",98.9%
same,"viability, T/C","second compound 0.0949 µM, first compound 0.0316 µM",75.3%
same,"viability, T/C","second compound 0.0949 µM, first compound 0.1 µM",89.7%
same,"viability, T/C","second compound 0.0949 µM, first compound 0.316 µM",79.2%
same,"viability, T/C","second compound 0.0949 µM, first compound 1 µM",85.3%
same,"viability, T/C","second compound 0.3 µM, first compound 0.00316 µM",74.8%
same,"viability, T/C","second compound 0.3 µM, first compound 0.01 µM",83%
same,"viability, T/C","second compound 0.3 µM, first compound 0.0316 µM",84.6%
same,"viability, T/C","second compound 0.3 µM, first compound 0.1 µM",68.9%
same,"viability, T/C","second compound 0.3 µM, first compound 0.316 µM",70.8%
same,"viability, T/C","second compound 0.3 µM, first compound 1 µM",88.1%
same,"viability, T/C","second compound 0.949 µM, first compound 0.00316 µM",88.2%
same,"viability, T/C","second compound 0.949 µM, first compound 0.01 µM",87.4%
same,"viability, T/C","second compound 0.949 µM, first compound 0.0316 µM",78.8%
same,"viability, T/C","second compound 0.949 µM, first compound 0.1 µM",75.2%
same,"viability, T/C","second compound 0.949 µM, first compound 0.316 µM",73%
same,"viability, T/C","second compound 0.949 µM, first compound 1 µM",62.4%
same,"viability, T/C","second compound 3 µM, first compound 0.00316 µM",72.8%
same,"viability, T/C","second compound 3 µM, first compound 0.01 µM",62.2%
same,"viability, T/C","second compound 3 µM, first compound 0.0316 µM",60.2%
same,"viability, T/C","second compound 3 µM, first compound 0.1 µM",56.7%
same,"viability, T/C","second compound 3 µM, first compound 0.316 µM",43.2%
same,"viability, T/C","second compound 3 µM, first compound 1 µM",53.2%
